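96-well plates; 48 h exposure; 5 concentrations. Endpoints by linear interpolation between flanking doses. Not reached: highest tested concentration assigned. TGI: total growth inhibition.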 Where a SMILES comes first, the peptide text is derived from it. [ ]: non-standard residue; d: D form. The star is where a group is joined. ξ: configuration not given here. ξPhe(4-NO2) = NC(Cc1ccc([N+](=O)[O-])cc1)C(=O)O; Boc = CC(C)(C)OC(=O)*; OBn = c1ccc(CO*)cc1
Tests used:
Assay in all cases: inhibition of tumour cell growth, NCI panel, 48 h
CAKI-1 renal = system: CAKI-1 renal
CCRF-CEM leukemia = system: CCRF-CEM leukemia
DU-145 prostate = system: DU-145 prostate
HCT-15 colon = system: HCT-15 colon
IGROV1 ovarian = system: IGROV1 ovarian
KM12 colon = system: KM12 colon
LOX IMVI melanoma = system: LOX IMVI melanoma
MALME-3M melanoma = system: MALME-3M melanoma
MDA-MB-231 breast = system: MDA-MB-231 breast
MDA-N = system: MDA-N
OVCAR-3 ovarian = system: OVCAR-3 ovarian
UACC-257 melanoma = system: UACC-257 melanoma

Compound | TGI (CAKI-1 renal) | TGI (CCRF-CEM leukemia) | TGI (DU-145 prostate) | TGI (HCT-15 colon) | TGI (IGROV1 ovarian) | TGI (KM12 colon) | TGI (LOX IMVI melanoma) | TGI (MALME-3M melanoma) | TGI (MDA-MB-231 breast) | TGI (MDA-N) | TGI (OVCAR-3 ovarian) | TGI (UACC-257 melanoma)
C=C(C)[C@@H]1CC[C@@H](C)[C@](O)([C@@H]2C[C@@H]([C@H](COC(=O)c3ccccc3)OC(=O)c3ccccc3)OC2=O)C1 | > 100 µM | > 100 µM | > 100 µM | > 100 µM | > 100 µM | > 100 µM | > 100 µM | > 100 µM | > 100 µM | > 100 µM | > 100 µM | > 100 µM
C[C@]12CC(c3ccccc3O1)C(C#N)C(=O)N2 (some centres undefined) | > 100 µM | > 100 µM | > 100 µM | > 100 µM | > 100 µM | > 100 µM | > 100 µM | > 100 µM | > 100 µM | > 100 µM | > 100 µM | > 100 µM
Cc1cnc2[nH]c(-c3ccc(F)cc3)cc(=O)c2c1 | > 100 µM | > 100 µM | > 100 µM | > 100 µM | > 100 µM | > 100 µM | > 100 µM | > 100 µM | > 100 µM | 8.87 µM | > 78.3 µM | > 100 µM
CC(=O)NCC1(c2ccccc2)CCN(CC2COc3ccccc3O2)CC1 (centres undefined) | > 100 µM | > 100 µM | > 100 µM | > 100 µM | > 100 µM | > 100 µM | > 100 µM | > 100 µM | > 100 µM | > 100 µM | > 100 µM | > 100 µM
CC1(C)CCCCCCCCCC(C)(CCCO)C1=O (centres undefined) | 31.6 µM | 92.4 µM | 31 µM | 31.8 µM | 31.4 µM | 33 µM | 32.9 µM | 30.6 µM | 28.7 µM | 30 µM | 34.1 µM | 31.8 µM
CC(=O)O[C@H]1C(=O)[C@@]2(C)[C@H]([C@H](OC(=O)c3ccc([N+](=O)[O-])cc3)[C@]3(O)C[C@H](OC(=O)[C@H](O)[C@@H](NC(=O)c4ccccc4)c4ccccc4)C(C)=C1C3(C)C)[C@]1(OC(C)=O)CO[C@@H]1C[C@@H]2O | > 25 µM | > 25 µM | > 25 µM | > 25 µM | > 25 µM | > 25 µM |  | > 25 µM | > 25 µM | > 25 µM |  | > 25 µM
O=C1/C(=C/c2ccc(Cl)cc2)NC(=S)N1CN1CCOCC1 |  | > 100 µM | > 100 µM | > 100 µM | > 100 µM | > 100 µM | > 100 µM | > 100 µM | > 100 µM | > 100 µM | > 100 µM | > 100 µM
COc1ccc2nc3cc([N+](=O)[O-])ccc3c(NNc3ccc(Cl)cc3)c2c1 | 2.26 µM | 80.1 µM | > 96.5 µM | > 100 µM | 45.1 µM | > 100 µM | > 100 µM | > 100 µM | > 73.1 µM | > 100 µM | > 20.5 µM | > 100 µM
CCOC(=O)c1cc(C2CCN(CC(C)CC)C2=S)c(C(=O)/C=C(/C)N)[nH]1 (centres undefined) | > 50 µM | > 50 µM | > 50 µM | > 50 µM | > 50 µM | > 50 µM | > 50 µM | > 50 µM | > 50 µM | > 50 µM | > 50 µM | > 50 µM
CS(=O)(=O)c1[nH]nc2[nH]c(=O)[nH]c(=O)c12 | > 10 µM | > 10 µM | > 10 µM | > 10 µM | > 10 µM | > 10 µM | > 10 µM | > 10 µM | > 10 µM | > 10 µM | > 10 µM | > 10 µM
NC1=CC(C(=O)c2ccncc2)c2nc3ccccc3nc21 (centres undefined) | > 100 µM | > 100 µM | > 100 µM | > 100 µM | > 100 µM | > 100 µM | 88.1 µM | > 100 µM | > 100 µM | > 100 µM | > 100 µM | > 100 µM
COC1C=C(NCC2(CO)CCC2)NC(N)=N1 (centres undefined) | > 100 µM | > 100 µM | > 100 µM | > 100 µM | > 100 µM | > 100 µM | > 100 µM | > 100 µM | > 100 µM | > 100 µM | > 100 µM | > 100 µM
COc1cccc(-c2cccc(SC)n2)n1 | > 100 µM | 41.5 µM | > 100 µM | > 100 µM | > 100 µM | > 100 µM | > 100 µM |  | > 100 µM | > 100 µM | 61.1 µM | 98.9 µM
c1ccc2[nH]c3[nH]c4[nH]c5ccccc5[nH]c4[nH]c3[nH]c2c1 | > 100 µM | > 100 µM | > 100 µM | > 100 µM | > 100 µM | > 100 µM | > 100 µM | > 100 µM | > 100 µM | > 100 µM | > 100 µM | > 100 µM
O=C1Nc2ccccc2[C@]12C[C@H]2c1ccccn1 | > 100 µM | > 100 µM | > 100 µM | > 100 µM | > 100 µM | > 100 µM | > 100 µM | > 100 µM | > 100 µM | > 100 µM | > 100 µM | > 100 µM
CCOc1ccc(N/C(=C(/C(Cl)=C(/Cl)NCCO)[N+](=O)[O-])n2nnc3ccccc32)cc1 | 27.8 µM | > 100 µM | 36 µM | 43.3 µM |  | > 100 µM |  | 32.4 µM | 63.8 µM | > 100 µM | 35.2 µM | > 100 µM
CC(=O)n1nc(-c2nc3ccccc3nc2Cl)cc1Cl | 21.6 µM | 7.73 µM | 43.1 µM | 57.3 µM | > 100 µM | 48.5 µM | 33.3 µM | > 78.7 µM | > 100 µM | 24.2 µM | 68.2 µM | > 100 µM
NC(C(F)(F)F)(C(F)(F)F)P(=O)(c1ccccc1)c1ccccc1 | > 100 µM | > 100 µM | > 100 µM | > 100 µM | > 100 µM | > 100 µM | > 100 µM | > 100 µM | > 100 µM | > 100 µM | > 100 µM | > 100 µM
CC(=O)OCC1OC(n2c3c(c(-c4ccc(Cl)cc4)c(C#N)c2=S)C(=O)CC(C)(C)C3)C(OC(C)=O)C(OC(C)=O)C1OC(C)=O (centres undefined) | > 31.9 µM | > 100 µM | > 100 µM | 53.2 µM | > 100 µM | > 77.4 µM | 29.8 µM | > 100 µM | 37 µM | > 54.8 µM | > 74 µM | 42.8 µM
Nc1nc(Cl)cc(NCC2(CO)CCC2)n1 | > 100 µM | > 100 µM | > 100 µM | > 100 µM | > 100 µM | > 100 µM | > 100 µM | > 100 µM | > 100 µM | > 100 µM | > 100 µM | 
N#CC1=C(C#N)/C(=C(\C#N)C(C#N)C#N)N=C1N | > 100 µM | 50.7 µM | > 100 µM | 64.3 µM | > 100 µM | > 100 µM | 55.8 µM | 38.2 µM | > 100 µM | 30.3 µM | > 100 µM | 51.7 µM
CCOC(=O)c1nnsc1NC(=O)Nc1ccc(Cl)cc1 |  | > 100 µM | > 100 µM | > 100 µM | > 100 µM | > 100 µM |  | > 100 µM | 52.7 µM | > 100 µM | > 100 µM | > 100 µM
COc1cc(C)cc2c1C(=O)C(Br)=CC2=O | 3.18 µM | 3.92 µM | 32.4 µM | 40.6 µM | 31.7 µM | 28.8 µM | 25.7 µM | 4.73 µM | 30.2 µM | 8.16 µM | 11.7 µM | 26.7 µM
CC(C)(C)OC(=O)NC(Cc1ccc([N+](=O)[O-])cc1)C(=O)NCC(=O)OCc1ccccc1 (centres undefined) (Boc-[ξPhe(4-NO2)]-Gly-OBn) | 27.7 µM | 48.8 µM | 81.8 µM | 41.9 µM | > 100 µM | 59 µM | 31.2 µM | 61.9 µM | 80.3 µM | 39.8 µM | 50.5 µM | 
Cn1cc2c(=O)n3ncn(-c4ccc(Br)cc4)c3nc2n1 | > 100 µM | > 100 µM | > 100 µM | > 100 µM | > 100 µM | > 100 µM |  | > 100 µM | > 100 µM | > 100 µM | > 100 µM | > 100 µM
O=c1cc(NCC2CCCCC2)[nH]c(=O)[nH]1 |  | > 100 µM | > 100 µM | > 100 µM | > 100 µM | > 100 µM | > 100 µM | > 100 µM | > 100 µM | > 100 µM | > 100 µM | > 100 µM
CCOC(=O)C1=C(C)N(C)C(=S)NC1c1cccc(O)c1 (centres undefined) | > 100 µM | 72.1 µM | > 100 µM | > 100 µM | > 100 µM | > 100 µM | > 100 µM |  | > 100 µM | 33 µM | > 100 µM | > 100 µM
CCCC(=O)N/S(=N/S(=O)(=O)c1ccc(Cl)cc1)C(Cl)(Cl)Cl (centres undefined) |  | > 100 µM | > 100 µM | > 100 µM | > 100 µM | > 100 µM |  | > 100 µM | > 100 µM | > 100 µM | > 100 µM | 
Cc1cn(CC2=NCC(C)(C)CN2)c(=O)[nH]c1=O |  | > 100 µM | > 100 µM | > 100 µM | > 100 µM |  | > 100 µM | > 100 µM | > 100 µM | > 100 µM |  | > 100 µM
